Results published in patent US20070014721A1, “Hydrazide conjugates as imaging agents” (priority 2005, published 2007).
Read-outs that look alike come from different tables or passages of the source. *1 amine or outer side, *2 acyl side, *3 side chain or, on linkers, in order; H or OH if unused. Where a SMILES comes first, the peptide text is derived from it. [ ]: non-standard residue; d: D form. The star is where a group is joined. PABC = O=C(OCc1ccc(N[*:1])cc1)[*:2]; hPhe = N[C@@H](CCc1ccccc1)C(=O)O; X1 = CC(=O)NCCCCCC(=O)NN*; Boc = CC(C)(C)OC(=O)*; Nlys = NCCCCNCC(=O)O; X2 = CC(=O)NN*

Tests used:
Aminopeptidase N = Aminopeptidase N (Homo sapiens, UniProt P15144); assay: Aminopeptidase N cleavage of test substrates; format: biochemical; settings: Boc removed from N-terminus before assay; 0.5 mM test substrate, 0.02 U APN, 37° C, 25 minutes
Experimental: The test compounds were dissolved in 50:50 TFA:dichloromethane and allowed to stand at ambient temperature under nitrogen for 10 minutes to remove the Boc protecting group from the N-terminus amino acid. The solutions were concentrated and the resulting oily residue was dissolved in 50:50 acetonitrile:water and lyophilized. The resulting flocculent solids were used directly in the APN assay.
Aminopeptidase N cleaves amino acids at the N-terminus of proteins and peptides attached to another amino acid. A stock solution of test substrates was prepared in 100% DMSO at a concentration of 8 mM. The stock solution (4.7 μL) was added to buffer (50 mM Hepes/pH 7.5, 10 mM CaCl2, 0.1% Brij) for a final concentration of 0.5 mM test substrate in the reaction. To this reaction solution 0.02 U of the enzyme (APN) was added, the solution was mixed, and immediately 30 μL of the mix was transferred to HPLC vials containing acetic acid (15 μL) for t=0 minutes measurement. The rest of the mix in the test tube was incubated at 37° C. for 25 minutes. At the 25 minutes time point 30 μL of the mix was transferred to an HPLC vial containing acetic acid (15 μl) for the t=25 minute measurement. The test substrates and products were separated by reversed phase HPLC on a Zorbax SB-C18 column (4.6×150 mm, 5 micron) using a water:acetonitrile gradient containing 0.1% TFA at a flow rate of 1.0 mL/min and with UV detection. The peak areas were integrated and the substrate peak area was used to determine rate constant k in the following equation: K={(% hydrolyzed/100)*[S]}/[E]*[time] where S=test substrate concentration in μmoles
E=aminopeptidase N concentration in units/ml
K=μmoles of substrate hydrolyzed/minute/unit enzyme

[1] = tested on: aorta of atherosclerotic rabbit model; settings: in vivo
Experimental: (§1) Atherosclerosis was induced in New Zealand White male rabbits (3 kg) with aortic balloon endothelial injury followed by feeding a 0.5% cholesterol diet for 22 weeks. Test compounds were radiolabeled(^14C, ^99mTc, or ^111In as described above) and administered at 0.02-1.0 mCi/kg to anesthetized rabbits in a single, bolus injection vis the marginal ear vein. Blood samples were collected from the central ear artery at 0, 2, 5, 7, 10, 15, 30, and 60 minutes post injection. Rabbits were euthanized at 60 minutes post injection for tissue harvesting (blood, muscle, bile, urine, kidney, liver, spleen, heart, lung, colon, small intestine, stomach, testes). Abdominal aorta (upper, middle, and lower) and left and right femoral arteries were collected. Both plaque bearing and non-plaque bearing rabbits were administered compounds to compare aorta uptake. All samples were weighed and assayed for radioactivity. Tissue uptake is expressed as percent of injected dose per gram of tissue (% ID/g). The aorta to blood ratios were calculated from the % ID/g data.

[2] = tested on: Rabbit plaque aorta or normal rabbit aorta; assay: Ex vivo blood vessel binding assay; set-up: species or system New Zealand white rabbits; settings: radiolabeled compound incubated with rabbit aorta (0.5 cm) in phosphate buffered saline for 2 hours at 37° C; bound compound as percentage of the incubated compound
From the text: Normal aorta was obtained from New Zealand white rabbits. Aorta bearing atherosclerotic plaque was obtained from New Zealand white rabbits balloon stripped along the abdominal aorta and placed on a high fat diet (0.5% cholesterol) for 16-22 weeks. Vascular injury was produced with a 3-F Fogarty catheter along the abdominal aorta and left iliofemoral artery. This procedure generates an accelerated complex lesion development with a lipid rich core covered by a fibrous cap in rabbits. Rabbit plaque aorta or normal rabbit aorta (0.5 cm) was incubated with 10 nCi of ^14C labeled compound or 1.5 μCi of ^99m Tc labeled compound or 0.135 μCi of ^111In labeled compound or 0.135 μCi of ^68Ga labeled compound or 0.135 µCi of ^153Gd labeled compound diluted in phosphate buffered saline (450 μL) for 2 hours at 37° C. The supernatant from this sample was collected and analyzed by HPLC to determine compound stability in presence of blood vessels. The blood vessel tissue was then washed with phosphate buffered saline (3×10 mL). Phosphate buffered saline (10 ml) was added to the tissue and incubated at 37° C. for 1 hour. The tissue was then washed with phosphate buffered saline (3×10 mL). The washed tissue was oxidized in a tissue oxidizer for C-14 labeled compounds. The counts in the oxidized tissue were determined on a beta counter. Blood vessels incubated with ^99m Tc labeled compound or ^111In labeled compound or ^68Ga labeled compound or ^153Gd labeled compound were counted on a gamma counter. The amount of compound bound to the tissue was determined as a percentage of the incubated compound. This was calculated using the following formula: [formula]

[3] = tested on: aorta of apolipoprotein E (apoE) knockout mouse; settings: in vivo
Experimental: (§2) Mice were fed a high-fat diet to accelerate plaque formation and compounds were tested in the mice between 37-41 weeks on diet. Test compounds were radiolabeled (^14C, ^99mTc, or ^111In as described above) and administered at 0.02-4.0 mCi/kg to anesthetized mice in a single, bolus injection via the tail vein. Blood samples were collected via the tail between 0-30 minutes postinjection for pharmacokinetic analysis and mice were euthanized by CO2 at 60 minutes for tissue harvesting. The aorta were flushed with saline through the left ventricle exiting via the femoral vein. The aorta were then removed from the heart to the renal bifurcation and additional tissue samples collected (blood, muscle, liver, kidney, heart, lung, spleen and innominate artery). All samples were weighed and assayed for radioactivity. Tissue uptake is expressed as percent of injected dose per gram of tissue (% ID/g). The aorta to blood ratios were calculated from the % ID/g data.

[4] = mouse, in vivo, iv
Experimental: as §2

[5] = tested on: aorta of apolipoprotein E (apoE) knockout mouse; assay: In vivo ApoE mouse aorta uptake study; settings: 60 min postinjection; for Aorta (% ID/g): ApoE mouse on high-fat diet 37-41 weeks, tail vein bolus; for Aorta/Blood Ratio: ApoE mouse, calculated from the % ID/g data
Experimental: as §2

[6] = tested on: aorta of atherosclerotic rabbit model; assay: In vivo rabbit aorta uptake study, atherosclerotic (plaque) rabbit; settings: 60 minutes postinjection; for Aorta/Blood (Plaque Rabbit): calculated from the % ID/g data; for Aorta Uptake, % ID/g (Plaque Rabbit): marginal ear vein bolus
Experimental: as §1

[7] = tested on: aorta of normal (non-plaque bearing) rabbit; assay: In vivo rabbit aorta uptake study, normal rabbit; set-up: species or system New Zealand White male rabbits; settings: 60 minutes postinjection; for Aorta/Blood (Normal Rabbit): calculated from the % ID/g data; for Aorta Uptake, % ID/g (Normal Rabbit): marginal ear vein bolus
From the text: All samples were weighed and assayed for radioactivity.

Chain of Aminopeptidase N (P15144 whole entry, species assumed): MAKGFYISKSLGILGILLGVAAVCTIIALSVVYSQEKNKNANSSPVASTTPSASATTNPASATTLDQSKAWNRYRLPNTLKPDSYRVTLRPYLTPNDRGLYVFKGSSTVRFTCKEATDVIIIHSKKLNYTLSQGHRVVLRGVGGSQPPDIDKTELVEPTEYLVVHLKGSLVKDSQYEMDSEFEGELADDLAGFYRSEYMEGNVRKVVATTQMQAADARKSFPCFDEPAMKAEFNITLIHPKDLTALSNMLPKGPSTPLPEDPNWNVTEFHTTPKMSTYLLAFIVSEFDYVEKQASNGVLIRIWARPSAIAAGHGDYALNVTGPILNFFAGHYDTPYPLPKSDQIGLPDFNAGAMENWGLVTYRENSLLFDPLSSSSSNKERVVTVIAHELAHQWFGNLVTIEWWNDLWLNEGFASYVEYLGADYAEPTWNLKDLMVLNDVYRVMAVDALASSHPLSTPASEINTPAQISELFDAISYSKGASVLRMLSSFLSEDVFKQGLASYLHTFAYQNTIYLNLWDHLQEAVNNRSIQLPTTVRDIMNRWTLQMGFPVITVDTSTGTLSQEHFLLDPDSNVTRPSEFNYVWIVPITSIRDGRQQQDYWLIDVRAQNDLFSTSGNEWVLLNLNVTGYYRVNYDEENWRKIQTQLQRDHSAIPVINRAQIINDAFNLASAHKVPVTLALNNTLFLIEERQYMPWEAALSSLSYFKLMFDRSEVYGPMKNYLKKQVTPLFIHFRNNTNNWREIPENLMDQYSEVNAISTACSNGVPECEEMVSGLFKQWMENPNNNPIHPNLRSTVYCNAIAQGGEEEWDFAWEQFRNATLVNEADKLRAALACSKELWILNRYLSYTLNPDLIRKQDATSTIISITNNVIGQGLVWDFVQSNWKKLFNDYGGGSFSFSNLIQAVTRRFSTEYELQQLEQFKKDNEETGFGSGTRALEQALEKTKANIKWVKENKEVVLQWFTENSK

Compound | Aorta/Blood (Plaque Rabbit) [1] | Aorta/Blood Ratio [3] | tissue uptake at 1 h [4] | Aorta (% ID/g) [5] | Aorta/Blood Ratio [5] | Aorta/Blood (Plaque Rabbit) [6] | Aorta Uptake, % ID/g (Plaque Rabbit) [6] | Aorta/Blood (Normal Rabbit) [7] | Aorta Uptake, % ID/g (Normal Rabbit) [7] | Rate of APN Hydrolysis of Test Substrates (Aminopeptidase N) | Tissue Binding % [2]
CC(C)C[C@H](NC(=O)OC(C)(C)C)C(=O)Nc1ccc(COC(=O)N[C@H](CC(C)C)C(=O)NNC(=O)CCCCCN)cc1.O=C(O)C(F)(F)F [Example 13, N-((2R)-2-{[(4-{(2S)-2-[(tert-Butoxy)carbonylamino]-4-methylpentanoylamino}phenyl)methoxy]carbonylamino}-4-methylpentanoylamino)-6-aminohexanamide, Trifluoroacetic Acid Salt] |  |  |  |  |  |  |  |  |  | 0.33 μmoles/minute/U | 
CC(C)C[C@H](NC(=O)OC(C)(C)C)C(=O)N[C@H](CC(C)C)C(=O)NNC(=O)CCCCCN.O=C(O)C(F)(F)F [Example 80, N-((2R)-2-{(2S)-2-[(tert-Butoxy)carbonylamino]-4-methylpentanoylamino}-4-methylpentanoylamino)-6-aminohexanamide, Trifluoroacetic Acid Salt] |  |  |  |  |  |  |  |  |  | 0.00 μmoles/minute/U | 
CC(C)C[C@H](NC(=O)OC(C)(C)C)C(=O)Nc1ccc(C[C@@H](NC(=O)OC(C)(C)C)C(=O)NNC(=O)CCCCCN)cc1.O=CO [Example 83, N-[(2R)-3-(4-{(2S)-2-[(tert-Butoxy)carbonylamino]-4-methylpentanoylamino}phenyl)-2-[(tert-butoxy)carbonylamino]propanoylamino]-6-aminohexanamide, Formic Acid Salt] |  |  |  |  |  |  |  |  |  | 0.43 μmoles/minute/U | 
CC(=O)NCCCCCC(=O)NNC(=O)[C@@H](CC(C)C)NC(=O)OCc1ccc(NC(=O)[C@H](CC(C)C)NC(=O)[C@H](CC(C)C)NC(=O)CN(CCCCNC(=O)OC(C)(C)C)C(=O)[C@H](CC(C)C)NC(=O)[C@@H]2CCCN2C(C)=O)cc1 [Example 128, Ac-PL-NLys(Boc)˜LL-PABA-CO-d-Leu-Ahxh-H] (Ac-PL[Nlys](Boc)LL[PABC][dL]-X1) | 1.93 | 2.3 |  |  |  |  |  |  |  |  | 5.77%
CC(=O)NNC(=O)[C@@H](CC(C)C)NC(=O)OCc1ccc(NC(=O)[C@H](CC(C)C)NC(=O)[C@H](CCc2ccccc2)NC(=O)CN(CCCCNC(=O)OC(C)(C)C)C(=O)[C@H](CC(C)C)NC(=O)[C@@H]2CCCN2C(C)=O)cc1 [Example 142] (Ac-PL[Nlys](Boc)[hPhe]L[PABC][dL]-X2) |  | 1.9 | 2.1 %ID/g |  |  |  |  |  |  |  | 
Boc-d-Leu-Ahxh-H [Example 120] |  |  |  | 8.9 % ID/g | 2.2 | 3.98 | 0.088 % ID/g |  |  |  | 14.09%
Boc-d-Leu-Inph-H [Example 139] |  |  |  | 17.2 % ID/g | 5.0 | 2.92 | 0.096 % ID/g |  |  |  | 18.36%
H-d-Leu-Ahxh-DOTA [Example 155] |  |  |  | 5.1 % ID/g | 2.0 | 1.67 | 0.080 % ID/g | 2.21 | 0.065 % ID/g |  | 3.49%
H-d-Leu-Apah-DTPA [Example 159] |  |  |  | 9.5 % ID/g | 3.0 | 4.08 | 0.083 % ID/g |  |  |  | 10.10%
H-d-Leu-Apph-DTPA [Example 171] |  |  |  | 6.7 % ID/g | 8.8 | 2.89 | 0.168 % ID/g | 4.49 | 0.143 % ID/g |  | 16.56%
H-d-Phe-Apah-DTPA [Example 164] |  |  |  | 8.2 % ID/g | 7.5 | 3.56 | 0.085 % ID/g |  |  |  | 13.88%
H-d-Phe-Apph-DTPA [Example 174] |  |  |  | 8.7 % ID/g | 11.0 |  |  | 5.42 | 0.111 % ID/g |  | 17.15%

Second part, led by results:

Aorta/Blood (Plaque Rabbit) [1] | Aorta/Blood Ratio [3] | tissue uptake at 1 h [4] | Aorta (% ID/g) [5] | Aorta/Blood Ratio [5] | Aorta/Blood (Plaque Rabbit) [6] | Aorta Uptake, % ID/g (Plaque Rabbit) [6] | Aorta/Blood (Normal Rabbit) [7] | Aorta Uptake, % ID/g (Normal Rabbit) [7] | Compound | Rate of APN Hydrolysis of Test Substrates (Aminopeptidase N) | Tissue Binding % [2]
9.05 | 8.8 |  |  |  |  |  |  |  | Boc-d-Phe[p-(Ac-PL-NLys(Boc)˜Hphe-L-NH)]-Ahxh-H [Example 147] |  | 44.73%
 |  |  | 15.7 % ID/g | 11.7 |  |  | 4.72 | 0.146 % ID/g | H-d-1-Nal-Ambh-DTPA [Example 183] |  | 24.41%
 |  |  | 12.9 % ID/g | 8.7 | 2.76 | 0.127 % ID/g | 4.78 | 0.129 % ID/g | H-d-Hphe-Ambh-DTPA [Example 203] |  | 17.96%
 |  |  |  |  | 1.31 | 0.092 % ID/g |  |  | H-d-Leu-Ahxh-Apa-DOTA [Example 215] |  | 11.54%
 |  |  | 12.2 % ID/g | 13.3 |  |  | 4.95 | 0.123 % ID/g | H-d-Leu-Apah-Ahx-DTPA [Example 176] |  | 25.21%
 |  |  | 14.8 % ID/g | 8.7 |  |  | 5.58 | 0.135 % ID/g | H-d-Trp-Ambh-DTPA [Example 208] |  | 14.91%
 |  |  | 5.3 % ID/g | 1.5 |  |  |  |  | H-d-Val-Ahxh-DTPA [Example 191] |  | 3.02%
 |  |  | 7.0 % ID/g | 1.5 |  |  |  |  | [H-d-Cys(Bzl)-Apph]2EDTA[APEEPA-DTPA]2 [Example 186] |  | 7.78%
